Assay [1] concerns the target EGFR (UniProt P00533).
Assay [2] has as its target EGFR (Hamster) (UniProt P00533). To be noted: for IC50: er22.
In assay [3] the target is EGFR (UniProt P00533). This is another data set of the same source.

Consider 35 compounds from the Kinase Knowledgebase extract (Sharma et al. 2016).

“And” between values parts separate entries of the source, which are not always exact repeats. Equal values may be shown once. A value given as a limit tells only on which side of the number the result lay.

As usually defined, the IC50 is the midpoint of a concentration-inhibition curve. What is called inhibition is the relative decrease from the control value, in per cent. A lower inhibition goes with a response near the control.

EGFR (Hamster), sequence (P00533 whole entry, looked up): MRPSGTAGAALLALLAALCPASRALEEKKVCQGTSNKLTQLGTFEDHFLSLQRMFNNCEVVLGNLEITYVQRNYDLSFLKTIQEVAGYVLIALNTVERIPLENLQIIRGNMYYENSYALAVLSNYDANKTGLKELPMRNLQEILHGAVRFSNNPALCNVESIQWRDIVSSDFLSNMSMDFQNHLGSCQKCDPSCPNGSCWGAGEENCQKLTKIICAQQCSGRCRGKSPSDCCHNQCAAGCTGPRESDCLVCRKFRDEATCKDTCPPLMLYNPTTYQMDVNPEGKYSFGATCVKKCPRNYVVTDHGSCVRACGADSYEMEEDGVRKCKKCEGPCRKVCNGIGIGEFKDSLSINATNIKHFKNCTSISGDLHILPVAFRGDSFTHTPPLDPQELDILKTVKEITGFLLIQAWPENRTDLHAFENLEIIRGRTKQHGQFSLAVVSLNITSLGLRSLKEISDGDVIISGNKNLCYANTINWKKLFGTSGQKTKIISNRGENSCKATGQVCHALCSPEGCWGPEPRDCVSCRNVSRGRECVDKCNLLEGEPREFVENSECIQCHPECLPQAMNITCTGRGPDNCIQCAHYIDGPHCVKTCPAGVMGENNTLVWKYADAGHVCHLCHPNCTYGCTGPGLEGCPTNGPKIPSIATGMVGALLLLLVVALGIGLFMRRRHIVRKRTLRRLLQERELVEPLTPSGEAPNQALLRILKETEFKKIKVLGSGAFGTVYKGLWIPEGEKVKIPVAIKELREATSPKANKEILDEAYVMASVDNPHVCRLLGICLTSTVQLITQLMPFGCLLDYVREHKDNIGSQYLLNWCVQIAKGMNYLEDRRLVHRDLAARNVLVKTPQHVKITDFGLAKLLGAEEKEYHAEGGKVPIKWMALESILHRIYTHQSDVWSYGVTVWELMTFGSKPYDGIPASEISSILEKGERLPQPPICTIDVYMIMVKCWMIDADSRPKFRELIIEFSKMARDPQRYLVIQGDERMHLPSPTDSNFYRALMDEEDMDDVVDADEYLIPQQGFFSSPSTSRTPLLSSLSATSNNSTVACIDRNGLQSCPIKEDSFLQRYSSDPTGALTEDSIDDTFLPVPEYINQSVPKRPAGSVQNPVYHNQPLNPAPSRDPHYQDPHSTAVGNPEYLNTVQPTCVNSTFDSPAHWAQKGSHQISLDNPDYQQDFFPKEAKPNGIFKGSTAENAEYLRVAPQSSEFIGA
EGFR, sequence (P00533 whole entry, looked up): as above

On to `O=C(CCc1ccccc1)c1c(O)cccc1NCc1cc(O)ccc1O`, for which the results for the IC50 in assay [1] and in assay [2] were 5000 nM and 4000 nM, respectively.
As to `O=C(Cc1ccccc1)c1cccc(NCc2cc(O)ccc2O)c1O`, the 50% inhibitory concentration (IC50) in assay [1] came to 2000 nM; in assay [2], 4800 nM.
The corresponding values for `CN(Cc1ccccc1)C(=O)c1cc(NCc2cc(O)ccc2O)ccc1O` are 550 nM and over 10000 nM.
Regarding `CC(C)c1ccc(NC(=O)c2cc(NCc3cc(O)ccc3O)ccc2O)cc1`, the IC50 was 150 nM in assay [1] and over 10000 nM in assay [2].
For `CC(CC(=O)c1cccc(NCc2cc(O)ccc2O)c1O)CC(C)(C)C` (stereo not given), the inhibition in assay [1] (concentration not given here) came out at 24%.
With `O=C(c1ccccc1)c1cccc(NCc2cc(O)ccc2O)c1`, the half-maximal inhibitory concentration (IC50) in assay [1] came to 800 nM; in assay [2], 5000 nM.
For the compound `CC(=O)c1cccc(NCc2cc(O)ccc2O)c1`, the values for the IC50 in assay [1] and in assay [2] were 1300 nM and 12000 nM, respectively.
For the compound `O=C(Nc1ccccc1)c1cc(NCc2cc(O)ccc2O)ccc1O`, the figures for the concentration for half-maximal inhibition (IC50) in assay [1], in assay [3] and in assay [2] were 20 nM, 90 nM and 10000 nM, respectively.
As for `Oc1ccc(O)c(CNc2ccc(O)c(COCc3ccccc3)c2)c1`, the half-inhibitory concentration (IC50) is 800 nM in assay [1] and over 10000 nM in assay [2].
The matching figures for `CC(COCc1cccc(NCc2cc(O)ccc2O)c1)CC(C)(C)C` (stereo not given): over 10000 nM and 2500 nM.
In turn, `CC(COC(=O)c1cc(NCc2cc(O)ccc2O)ccc1O)CC(C)(C)C` (stereo not given) gave an IC50 in assay [3] of at least 10000 nM.
In the case of `Oc1ccc(O)c(CNc2ccc(O)c(C(O)c3ccccc3)c2)c1` (stereo not given), the results for the 50% inhibitory concentration (IC50) in assay [1] and in assay [2] were 1300 nM and 8200 nM, respectively.
As for `CC(=O)c1cc(NCc2cc(O)ccc2O)ccc1O`, the IC50 in assay [1] was 340 nM; in assay [2] it was over 10000 nM.
The matching figures for `CC(O)c1cccc(NCc2cc(O)ccc2O)c1` (stereo not given): 1600 nM and over 20000 nM.
As for `N#Cc1cc(NCc2cc(O)ccc2O)ccc1O`, the half-maximal inhibitory concentration (IC50) is 190 nM in assay [1] and over 10000 nM in assay [2].
In the case of `O=C(NCc1ccccc1)c1cc(NCc2cc(O)ccc2O)ccc1O`, the half-inhibitory concentration (IC50) in assay [1] is 20 nM and 38 nM; in assay [3], 40 nM; in assay [2] it was 6000 nM and 7000 nM.
As to `CC(CSCc1cc(NCc2cc(O)ccc2O)ccc1O)CC(C)(C)C` (stereo not given), the concentration for half-maximal inhibition (IC50) in assay [1] turned out to be 1900 nM; in assay [2], 5000 nM.
The matching figures for `COc1ccc(NCc2cc(O)ccc2O)cc1COCC(C)CC(C)(C)C` (stereo not given): 20000 nM and 800 nM.
The corresponding values for `CC(C)c1ccccc1NC(=O)c1cc(NCc2cc(O)ccc2O)ccc1O` are 120 nM and over 10000 nM.
The corresponding values for `CC(COCc1cc(NCc2cc(O)ccc2O)ccc1O)CC(C)(C)C` (stereo not given) are 10000 nM and 2000 nM.
Regarding `OCc1cc(NCc2cc(O)ccc2O)ccc1O`, the concentration for half-maximal inhibition (IC50) was found to be 2000 nM in assay [1] and 12000 nM in assay [2].
In assay [1], `CCCCCCCCCCCCCCCCC(=O)Oc1ccc(NCc2cc(O)ccc2O)cc1C(=O)NCc1ccccc1` showed an IC50 of 1500 nM. The inhibition in assay [2] (er22, dose or concentration not given here) worked out at 20%.
As for `O=C(CCc1ccccc1)c1cc(NCc2cc(O)ccc2O)ccc1O`, the IC50 in assay [1] was determined as 160 nM; in assay [2] it was 6500 nM.
As for `Oc1ccc(O)c(CNc2ccc(O)c(COc3ccccc3)c2)c1`, the IC50 is 700 nM in assay [1] and over 10000 nM in assay [2].
Turning to `Oc1ccc(O)c(CNc2cccc(COCc3ccccc3)c2)c1`, the results for the IC50 in assay [1] and in assay [2] were 950 nM and 2500 nM, respectively.
The corresponding values for `Oc1ccc(O)c(CNc2cccc(C(O)c3ccccc3)c2)c1` (stereo not given) are 1800 nM and 20000 nM.
The corresponding values for `CC(CC(=O)c1cc(NCc2cc(O)ccc2O)ccc1O)CC(C)(C)C` (stereo not given) are 370 nM and 2000 nM.
The corresponding values for `COC(=O)[C@H](Cc1ccccc1)NC(=O)c1cc(NCc2cc(O)ccc2O)ccc1O` are 540 nM and 10000 nM.
Regarding `Oc1ccc(O)c(CNc2ccc(O)c(C(=S)NCc3ccccc3)c2)c1`, the IC50 was 150 nM in assay [1] and over 5000 nM in assay [2].
The matching figures for `CC(CNC(=O)c1cc(NCc2cc(O)ccc2O)ccc1O)CC(C)(C)C` (stereo not given): 800 nM and 6000 nM.
The matching figures for `O=C(Cc1ccccc1)c1cc(NCc2cc(O)ccc2O)ccc1O`: 60 nM and 10000 nM.
The corresponding values for `O=C(c1ccccc1)c1cc(NCc2cc(O)ccc2O)ccc1O` are 300 nM and 10000 nM.
Take `CC(NC(=O)c1cc(NCc2cc(O)ccc2O)ccc1O)c1ccccc1` (stereo not given): the IC50 in assay [1] was 70 nM; in assay [2], 10000 nM.
With `CC(C)(C)CC(C)(C)NC(=O)c1cc(NCc2cc(O)ccc2O)ccc1O`, the results for the IC50 in assay [1], in assay [3] and in assay [2] were 220 nM, 300 nM and 9000 nM, respectively.
`O=C(OCCCc1ccccc1)c1cc(NCc2cc(O)ccc2O)ccc1O`: the IC50 in assay [2] came to 2250 nM.
